# Experimental data from patent US20120329854A1, “Methods and Compounds for the Diagnosis and Treatment for Cancer” (UNIVERSITÄTSKLINIKUM FREIBURG, priority 2009, published 2012).
# Entries after “also recorded” stand apart in the source; their conditions may differ.
# What was measured:
# Format in all cases: cell-based, human
# [1] = system: AR, LSD1, PKCβI on AR-regulated genes; assay: ChIP for occupancy of AR, LSD1 and PKCβI on AR target promoters in LNCaP cells
# Method: (§1) ChIP and Re-ChIP experiments were performed as described^3. LNCaP cells were cultured for 15 min (ChIP) or 210 min (Re-ChIP) in the presence or absence of 1×10^−8M R1881 as indicated. Three days before harvesting, cells were transfected with siRNA (control for PKCβI: 5′-[…]-3′(SEQ ID NO 3); PKCβI: 5′-[…]-3′ (SEQ ID NO 4) (FIG. 3 b, c, f-i); control for PRK1: 5′-[…]-3′ (SEQ ID NO 14); PRK1: 5′-[…]-3′ (SEQ ID NO: 15) (FIG. 3 d, e); Invitrogen) using RNAifect (Qiagen) following the manufacturer's instructions. Immunoprecipitation was performed with specific antibodies (α-AR #06-680 lot 33529 (Upstate Biotechnology), α-H3K4me1 #ab8895 lot 535654, α-H3T6ph #ab14102 lot 481643, α-H3 #ab1791 lot 172452, α-PKCβI S660ph #ab23513 lot 596904 (Abcam), α-PKCβI (C-16) #sc-209 lot 481643, (Santa Cruz), α-H3K4me2 #cs-035-100 lot A391001 (Diagenode), α-PRK1^3, and α-LSD1^2) on protein A-Sepharose 4B (GE-Healthcare). For PCR, 2 μl out of 50 μl DNA extract was used. PCR primers for FKBP5 (+351/+443), KLK2 (−343/−90), SCN1A, SCN2A, GAPDH, and U6 were described previously^1, 2, 6, 11.
# [2] = system: H3K4me2 and H3K4me1 at the KLK2 and FKBP5 promoters; assay: ChIP with α-H3K4me2 and α-H3K4me1 antibodies in LNCaP cells
# Method: as §1
# AR = assay: Western blot analysis of endogenous AR in LNCaP cells; details: siRNA transfection (FIG. 3c, 3e right panels)
# Method: Experiments were performed as described^2. Western blots were decorated as indicated.
# [3] = system: H3T6ph at the AREs of the KLK2 and FKBP5 promoters; assay: ChIP with α-H3T6ph antibody in LNCaP cells; details: for androgen-induced phosphorylation of H3T6 at the AREs of the KLK2 and FKBP5 promoters upon knockdown: siRNA transfection three days before harvesting, 1×10^−8 M R1881, versus control siRNA
# Method: as §1
# [4] = system: PKCβI S660ph at the KLK2 and FKBP5 promoters; assay: ChIP with α-PKCβI S660ph antibody in LNCaP cells
# Method: as §1
Molecule,"ligand-dependent recruitment of AR and presence of LSD1 on AR-regulated genes upon knockdown ([1]; siRNA transfection (FIG. 3b, c))","H3K4me2 and H3K4me1 levels at the KLK2 and FKBP5 promoters upon knockdown ([2]; in the absence of R1881 (FIG. 3f, g))","H3K4me2 and H3K4me1 levels at the KLK2 and FKBP5 promoters upon knockdown ([2]; in the presence of R1881 (FIG. 3f, g))",levels of endogenous AR upon knockdown (AR),androgen-induced phosphorylation of H3T6 at the AREs of the KLK2 and FKBP5 promoters upon knockdown [3],"ligand-dependent activation of PKCβI (S660ph) upon knockdown ([4]; siRNA transfection, with R1881 (FIG. 3d, e))","presence of PKCβI on AR target promoters upon knockdown ([1]; siRNA transfection (FIG. 3d, e))","phosphorylation at S660 of PKCβI at the KLK2 and FKBP5 promoters on addition of ligand ([4]; R1881 versus absence of ligand (FIG. 3b, c))","levels of H3K4me2 and H3K4me1 at the KLK2 and FKBP5 promoters on addition of ligand ([2]; R1881 versus absence of ligand (FIG. 3f, g))","phosphorylation of H3T6 at the AREs of the KLK2 and FKBP5 promoters on addition of ligand ([3]; 1×10^−8 M R1881 versus absence of ligand (FIG. 3b, c))"
"5′-CAUUGUCCUCGUAAGAGAUGCUAAA-3′ (listed as RNA, chemistry not given here) [siRNA directed against PKCβI]",does neither affect,Elevated levels,reduces H3K4me2 and H3K4me1 levels to those observed in the absence of R1881,does not affect,blocked; also recorded: blunts,–,–,–,–,–
"5′-GAACAUGAUCCAGACCUACAGCAAU-3′ (listed as RNA, chemistry not given here) [siRNA directed against PRK1, siRNA against Protein-kinase-C-related kinase 1 (PRK1), Invitrogen, reference compound]",–,–,–,does neither affect,abolished,blocked,does neither affect,–,–,–
"C[C@]1(O)CC[C@H]2[C@@H]3CCC4=CC(=O)CCC4=C3C=C[C@@]21C [R1881, reference compound]",–,–,–,–,–,–,–,androgen-induced phosphorylation at 5660 of PKCβI,increased,results in phosphorylation of H3T6
